This note sets out measurements from article PMC6027421 (Pharmaceuticals, 2018).

Test [1] deals with T1, CYP17A1_WT (Homo sapiens, UniProt P05093).
T1 sequence (P05093 1-508): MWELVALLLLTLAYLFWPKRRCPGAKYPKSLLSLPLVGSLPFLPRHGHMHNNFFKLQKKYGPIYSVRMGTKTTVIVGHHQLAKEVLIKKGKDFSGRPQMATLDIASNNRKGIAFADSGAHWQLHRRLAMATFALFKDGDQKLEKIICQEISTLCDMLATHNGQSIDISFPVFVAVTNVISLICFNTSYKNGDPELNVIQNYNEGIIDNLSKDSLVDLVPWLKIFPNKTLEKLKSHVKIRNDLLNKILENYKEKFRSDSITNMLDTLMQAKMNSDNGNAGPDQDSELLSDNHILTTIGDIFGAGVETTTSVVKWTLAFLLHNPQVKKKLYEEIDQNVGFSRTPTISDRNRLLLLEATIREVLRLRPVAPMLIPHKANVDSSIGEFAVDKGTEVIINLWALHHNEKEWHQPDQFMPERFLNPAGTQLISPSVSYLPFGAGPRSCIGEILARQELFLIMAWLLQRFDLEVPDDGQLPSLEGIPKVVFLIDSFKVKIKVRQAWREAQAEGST
Put plainly: Spectral substrate/inhibitor-binding assay, WT CYP17A1. Particulars: 50 nM protein, 22 °C. On the procedure:
Binding of steroid substrates to CYP17A1 was measured by recording the substrate-binding spectra in the range of 340–500 nm on a Perkin Elmer Lambda 25 spectrophotometer. A change in heme absorbance is observed when water molecules at the active site are replaced by steroid substrates. […] To accurately measure the tight binding substrates and inhibitors, a cuvette with 100 mm path length was employed and protein concentration was kept at 50 nM. […] All substrates and abiraterone were dissolved in ethanol and an equal amount of ethanol was added to the reference cuvette and the final concentration of ethanol added to the cuvettes was kept below 2%. After each addition of the compounds, cuvettes were incubated for 5 min at 22 °C before recording the spectra. […] Data were fitted with GraphPad Prism based on the tight binding pattern of substrates to a single binding site.

For test [2], the target named is T1, CYP17A1_WT. Put plainly: Inhibition of PROG 17α-hydroxylation, WT CYP17A1. In kind it is biochemical.
Protocol: (§1) To assess 17α-hydroxylase activity, 10 pmol of CYP17A1 along with 20 pmol purified human POR [17, 31, 32, 34, 62] […] Enzyme kinetic calculations were performed using non-linear regression curve fitting with Prism (GraphPad Software Inc., San Diego, CA, USA). Data represent the mean of three independent experiments.
Test [3] has as its system CYP17A1 WT. The following applies: 17OH-PREG as substrate, with cytochrome b5.
The subject of test [4] is T2, CYP17A1 WT.
T2 construct: (His)4; made in house; host or cells: E. coli JM109
Put plainly: 17α-hydroxylase enzyme kinetics (PROG to 17OH-PROG), WT CYP17A1. Format: biochemical, human.
Protocol: as §1

Like-named read-outs stand apart in the source and are kept apart here.

With `CC(=O)[C@@]1(O)CC[C@H]2[C@@H]3CC=C4C[C@@H](O)CC[C@]4(C)[C@H]3CC[C@@]21C` [17OH-PREG, 17α-hydroxypregnenolone], binding in test [1] (Kd) was put at a Kd of 142 ± 38 nM. In test [2], this molecule displayed an IC50 of 1700 ± 200 nM. Besides, the “Vmax, 17,20 Lyase 17OH-PREG to DHEA” value in test [3] was 0.025 ± 0.004 min⁻¹. Further, the Michaelis constant (Km) in test [3] (read-out: Km, 17,20 Lyase 17OH-PREG to DHEA) came out at 0.92 ± 0.07 µM.
`C[C@]12CC[C@H](O)CC1=CC[C@@H]1[C@@H]2CC[C@]2(C)C(c3cccnc3)=CC[C@@H]12` [Abiraterone, abiraterone]: in test [1] (read-out: Kd), the Kd amounted to 85 ± 23 nM. It took 40 ± 10 nM to reach half-maximal inhibition in test [2] (IC50).
In the same order, the values of `CC(=O)[C@H]1CC[C@H]2[C@@H]3CC=C4C[C@@H](O)CC[C@]4(C)[C@H]3CC[C@]12C` [PREG, pregnenolone] are 62 ± 17 nM and 900 ± 150 nM.
Regarding `CC(=O)[C@H]1CC[C@H]2[C@@H]3CCC4=CC(=O)CC[C@]4(C)[C@H]3CC[C@]12C` [PROG, Progesterone], the “Vmax, 17α-Hydroxylase PROG to 17OH-PROG” value in test [4] (PROG as substrate) turned out to be 0.71 min⁻¹. Moreover, in test [4] (read-out: Km, 17α-Hydroxylase PROG to 17OH-PROG, PROG as substrate, CYP17A1:POR 1:2, 37 °C), the Km was 6.1 ± 0.7 µM. For the same molecule, in test [4] (relative to WT), the “Cat Eff, 17α-Hydroxylase PROG to 17OH-PROG” value is 100%. The Kd in test [1] (read-out: Kd) stood at 163 ± 29 nM.

By Kd is commonly meant the free concentration of one partner at which half of the binding sites on the other are occupied at equilibrium, for simple one-to-one binding. In general, IC50 refers to the midpoint of a concentration-inhibition curve. Read a high IC50 as lower potency. Usually Km stands for the concentration of substrate that gives half-maximal velocity.
